Test results: patent US20240109855A1, “ANTI-QUORUM SENSING, ANTI-BIOFILM, AND INFLAMMATION ATTENUATING COMPOUNDS, COMPOSITIONS, AND METHODS OF USING SAME” (priority 2021, published 2024)
“Also recorded” adds a separate entry of the source. Read-outs that look alike come from different tables or passages of the source.

Assays:
[1] = tested on: Chromobacterium violaceum (CV026); test: Quorum sensing inhibition test with bio-reporter CV026 (TLC overlay); type: cell-based; settings: for Degree of QSI of CV026: Table 1, coumaperine derivatives, 40 mM in ~20 μL acetonitrile dried on TLC plate, overnight, color intensity; for QSI activity against CV026, in words: running text; as to Degree of QSI of CV026: key: −: no inhibition; +: low inhibition; ++: medium inhibition; +++: strong inhibition; as to Degree of quorum sensing inhibition (QSI), CV026: key: −: no inhibition; +: low inhibition; ++: medium inhibition; +++: strong inhibition
Experimental: (§1) TLC preparation: all derivatives were dissolved in 100% acetonitrile to a concentration of 40 mM. Then placed 20 μlon the same spot on the TLC and let the solvent evaporate before use. CV026: few colonies were transferred to liquid LB (Lenox) for overnight incubation at 30° C. in a 45 degree in orbital shaker. At the O.D. 0.8 3 ml of the starter was added to preheated soft LB agar containing 500 nM of 3-oxo-C6 (Sigma-Aldrich). The mixture was then loaded on the TLC in a glass plate for O.N. incubation in 30° C. The next day inhibition zone was measured, while QS is taking place bacteria produce purple pigment, and when QS is inhibited no pigment is produced. KYC55 (pJZ372) (pJZ384) (pJZ410): 20 μl from the frozen stock into 25 ml AT media (AT buffer×20: 1.57 M KH2PO4 pH=7.3. AT salts mix×20: 300 mM (NH4)2SO4, 13 mM MgSO4, 1.4 mM CaCl2, 0.4 mM FeSO4·7H2O, 0.26 mM MnSO4·H2O. AT media: 50 ml×20 AT-buffer, 50 ml×20 AT-salts, 10 ml 50% (w/v) glucose, add 890 ml to final volume of 1 liter.) For O.N. at 30° C. in an orbital shaker. Into preheated water agar with 25 ml AT-buffer, and 60 μg/ml X-gal and 5 nM 3-oxo-c8 (both from Sigma-Aldrich) 25 ml of the starter was added. Then, that mixture was loaded on the TLC in glass plate for O.N. incubation in 30° C. The next day the inhibition zone was measured. The bacteria produce blue pigment during QS and when QS is inhibited no pigment is produced. KYC55 (pJZ372) (pJZ384) (pJZ410) preservation in tetracycline (1 μg/ml), spectinomycin (100 μg/ml), gentamicin (100 μg/ml) (all antibiotics from Sigma Aldrich) in AT media O.N. then centrifuged and suspend in 15% glycerol frozen and maintained at −80° C.

[2] = tested on: Agrobacterium tumefaciens (KYC55); test: Quorum sensing inhibition test with bio-reporter KYC55 (TLC overlay); type: cell-based; settings: for Degree of QSI of KYC55: Table 1, coumaperine derivatives, 40 mM in ~20 μL acetonitrile dried on TLC plate, overnight, color intensity; for QSI activity against KYC55, in words: running text; as to Degree of QSI of KYC55: key: −: no inhibition; +: low inhibition; ++: medium inhibition; +++: strong inhibition; as to Degree of quorum sensing inhibition (QSI), KYC55: key: −: no inhibition; +: low inhibition; ++: medium inhibition; +++: strong inhibition
Experimental: as §1

[3] = tested on: quorum sensing (CV026 and KYC55); test: Quorum sensing inhibition, overall statement over the bio-reporter bacteria; type: cell-based; settings: for QSI: Table 6 summary; for QSI activity overall, in words: running text
Experimental: as §1
All the synthesized compounds were evaluated for quorum sensing inhibition against two bioreporter bacteria strains, Chromobacterium violaceum (CV026) and Agrobacterium tumefaciens (KYC55) and the results are summarized in Table 1.

Bacillus subtilis = test: Diffusion discs test, Bacillus subtilis; type: cell-based; parameters: key: —: no activity; settings: discs with 40 mM of compound in 20 μl solvent
Experimental: (§2) All derivatives were dissolved in acetonitrile to a final concentration of 40 mM. Twenty (20) μl were loaded onto Whatman filter paper discs and dried. Bacillus subtilis, Staphylococcus aureus, and Acinetobacter baumannii were grown in LB (Lenox) O.N. One hundred (100) μl from the starter culture was plated on LB agar (Miller) dishes. Streptococcus sobrinus, and Streptococcus mutans grown in Brain Heary Infusion (BHI, Himedia) O.N. were similarly plated on BHI agar dishes. Discs were laid and incubated O.N. in 37° C. and the diameter of inhibition of bacterial growth was measured.

Staphylococcus aureus = test: Diffusion discs test, Staphylococcus aureus; type: cell-based; parameters: key to Staphylococcus aureus, diameter of growth inhibition: —: no activity; settings: for Staphylococcus aureus, diameter of growth inhibition: discs with 40 mM of compound in 20 μl solvent
Experimental: as §2

Streptococcus sobrinus = test: Diffusion discs test, Streptococcus sobrinus; type: cell-based; parameters: key: —: no activity; settings: discs with 40 mM of compound in 20 μl solvent
Experimental: as §2

Streptococcus mutans = test: Diffusion discs test, Streptococcus mutans; type: cell-based; parameters: key: —: no activity; settings: discs with 40 mM of compound in 20 μl solvent
Experimental: as §2

PA01 = test: Diffusion discs test, PA01; type: cell-based, P. aeruginosa; parameters: key: —: no activity; settings: discs with 40 mM of compound in 20 μl solvent
Acinetobacter baumannii = test: Diffusion discs test, Acinetobacter baumannii; type: cell-based; parameters: key: —: no activity; settings: discs with 40 mM of compound in 20 μl solvent
Experimental: as §2

[4] = tested on: gram-positive and gram-negative bacteria; test: Antibacterial activity, overall statement (diffusion discs test); type: cell-based; settings: for Antibacterial: Table 6 summary; for Antibacterial activity, in words: running text
Experimental: as §2
The antibacterial activities of derivatives showing QSI are outlined in Table 4. […] Similar to that idea, synthetic derivatives of furanon (product of marine algae) shown in-vivo QSI activity without antibacterial activity followed by immune response of the infected animal. Phenolic compounds decrease QS and virulence in PA01 and Chromobacterium violaceum. There is increasing number of studies, searching for compounds that targeting non-vital processes to combat bacteria.

NF-kB = test: NF-kB-luciferase reporter gene assay in L428 cells; type: cell-based, human; settings: Table 6 summary; also: key: +: active; −: inactive
Experimental: FIG. 7 includes a vertical bar graph showing a dose response of NF-kB activation according to an NF-kB reporter gene luciferase assay. L428 cells were stably transfected with the NF-kB luciferase reporter gene. The cells were incubated with the compounds at different concentrations for 2 hours. […] The results represent the percentage of NF-kB activation as compared to vehicle (DMSO) treated cells. All samples were normalized to protein concentration. Mean+SD, Two-way ANOVA and Tukey's multiple comparison test. 95% confidence interval (p-values *≤0.0332, **≤0.0021, ***≤0.0002).
L428 cells stable transfectants with the luciferase NF-kB-Luc reporter gene were generated previously described (Ozer et al., 2009), and were maintained in 500 μg/ml of G418 (G418 disulfate salt, Sigma-Aldrich). The cells (5×10^5 /well in triplicate) were incubated for 2 hrs. in 1 ml of medium containing the solvent (DMSO) or different concentrations of the molecules tested. Cells were then harvested, lysed, and monitored by a luciferase reporter assay kit (Promega) according to the manufacturer's instructions. Measurements were carried out using a luminometer (Promega, GLOMAX™ 20/20 Luminometer). Data were normalized to the protein concentration in each lysate as measured by the Bradford method (BioRad) and normalized to the control. Experiments were repeated at least three times.

in vitro = settings: human, LC50
Experimental: (§3) The human Hodgkin's Lymphoma derived L428 cell line was used as a model. The cells were grown in RPMI Medium 1640 with 10% FBS, 1% Glutamine and pen-strep (all from Biological Industries, Israel). […] Thirty thousand (30,000) cells/well were placed in 96-well plates with the coumaperine derivatives at different concentrations or with vehicle (DMSO) at a final volume of 200 μl. The plates were incubated for 48 hrs. at 37° C. and 5% CO2 followed by the addition of 50 μl of the XTT reagent tetrazolium-formazan, (Biological Industries, Israel) was added for 2 hrs. at 37° C., 5% CO2. In living cells, mitochondria […] the tetrazolium-formazan salt, thereby generating a color absorbing product at 450 nm. Absorbance was measured at 450 nm and 650 nm in an enzyme-linked immunosorbent assay (ELISA) plate reader (Multiskan Spectrum, Version 1.2), and recorded. Absorption values at 650 nm were subtracted from the blank and the 450 nm values. The results were normalized to the control (treated with DMSO).
(§4) Viability was determined in triplicate in two independent tests. The results were normalized to vehicle (DMSO) treated cells, (100% viability). Mean+SD.

L428 cells [5] = test: in vitro
Experimental: as §3, §4

L428 cells [6] = settings: cited from earlier work
[7] = Table 2, piperlongumine derivatives

Row | Structure (SMILES) | Degree of QSI of CV026 [1] | QSI activity against CV026, in words [1] | Degree of QSI of KYC55 [2] | QSI activity against KYC55, in words [2] | QSI [3] | QSI activity overall, in words [3] | Bacillus subtilis, diameter of growth inhibition (Bacillus subtilis) | Staphylococcus aureus, diameter of growth inhibition (Staphylococcus aureus) | Streptococcus sobrinus, diameter of growth inhibition (Streptococcus sobrinus) | Streptococcus mutans, diameter of growth inhibition (Streptococcus mutans) | PA01, diameter of growth inhibition (PA01) | Acinetobacter baumannii, diameter of growth inhibition (Acinetobacter baumannii) | Antibacterial [4] | Antibacterial activity, in words [4] | Anti-inflammatory (NF-kB) | CC50 at 48 h (in vitro) [µM] | Cytotoxic (L428 cells [5]) | other results
1 | O=C(/C=C/C=C/c1ccccc1)N1CCCCC1 [CP-9, (2E,4E)-5-phenyl-1-(piperidin-1-yl)penta-2,4-dien-1-one] | ++ | moderate | + | low | + | anti QS activity | 8 mm | 9 mm | 9 mm | — | — | — | + | showed antibacterial activity; also recorded: inhibit bacterial growth of the three gram-positive bacteria; also recorded: some antibiotic activity | + | 24.7 | + | CC50 (L428 cells [5]; human, 48 h): 24.7 µM; Cytotoxicity, previously reported (L428 cells [6]): cytotoxic
2 | O=C(/C=C/C(=O)N1CCCCC1)c1ccc(F)c(F)c1 [CP-287, (E)-3-(benzoyl 3,4-difluoro)-1-(piperidin-1-yl)prop-2-en-1-one] |  |  |  |  | + |  | — | — | 9 mm | — | — | — | − | showed antibacterial activity | + |  | + | CC50 (L428 cells [5]; read-out: LC50, L428 cells, 48 hrs): 284 µM; CC50 (L428 cells [5]; read-out: LC50, Table 5, L428 cells, 48 hrs): 284 µM
3 | O=C1C=CCCN1C(=O)/C=C/c1cc(O)c(O)c(O)c1 [PL-25, trihydroxy piperlongumine] |  | inactive |  | moderate inhibition |  |  | — | 9 mm | — | — | — | — |  | showed antibacterial activity |  | 46.3 |  | Degree of quorum sensing inhibition (QSI), CV026 [1, 7]: −; Degree of quorum sensing inhibition (QSI), KYC55 [2, 7]: ++
4 | O=C(/C=C/C1CCCCC1)N1CCCCC1 [CP-295, (E)-cyclohexyl-1-(piperidin-1-yl)prop-2-en-1-one] | ++ | moderate activity | ++ | moderate activity |  |  | — | — | 12 mm | — | — | — |  | showed antibacterial activity |  | 408 |  | 
5 | O=C(/C=C/C=C/c1ccc(F)cc1)N1CCCCC1 [CP-154, (2E,4E)-5-(4-fluorophenyl)-1-(piperidin-1-yl)penta-2,4-dien-1-one] | +++ | highly active | +++ | highly active | + | anti QS activity | 7 mm | 11 mm | 9 mm | — | — | — | + | showed antibacterial activity | + | 46.8 | + | Cytotoxic activity, in words (L428 cells [5]): cytotoxic
6 | CSc1ccc(/C=C/C=C/C(=O)N2CCCCC2)cc1 [CP-147, (2E,4E)-5-(4-(methylthio)phenyl)-1-(piperidin-1-yl)penta-2,4-dien-1-one] | + | low activity; also recorded: low QS inhibition effect | − | inactivity; also recorded: does not affect QS |  |  | — | 9 mm | — | — | — | — |  | showed antibacterial activity |  |  |  | Staphylococcus aureus growth inhibition, in words (Staphylococcus aureus; running text): inhibits Staphylococcus aureus growth
